“Also recorded” adds a separate entry of the source.

The subject of test [1] is A549 cells. Nature of the test: Luciferase expression after electroporation of pCMV-Lux-DTS plasmid (transfection efficiency). Format: cell-based, human. Conditions: for luciferase expression versus DMSO (vehicle) treated or wild type cells: A549, 3 hours after electroporation, 1 μM TSA, 3 mM 17b, 1 mM 17-AAG, 10 nM okadaic acid; for exogenous gene expression (luciferase) versus vehicle control: A549, 24 hours after electroporation and 25 hours after drug treatment; for exogenous gene expression as measured by luciferase expression over appropriate control (FIG. 4): A549 cell cultures. The procedure:
Human adenocarcinoma A549 cells (ATCC, #CCL-185, Rockville, Md.) were grown in DMEM supplemented with 10% fetal bovine serum (FBS). A stable line of A549 cells expressing firefly luciferase was constructed by transfection of cells with plasmid pGL4.14[luc2/Hygro] (Promega, Madison, Wis.) and selection with hygromycin. Colonies were pooled and passaged under selection. HIF-1 and HIF-2 knockdowns were created in A549 cells using retroviral methods with the PT67 packaging cell line (Clontech, Mountain View, Calif.). PT67 cells were transfected with 10 to 15 μg of specific shRNA-expressing or empty plasmids using lipofectin (Invitrogen, Carlsbad, Calif.) according to the manufacturer's protocol. Virus-containing medium was supplemented with 8 μg/ml of polybrene (Sigma, St. Louis, Mo.) for infection. Stable HDAC6 knockdown or stable HDAC6 overexpressing A549 cells were a generous gift from T. P. Yao (Duke University). For electroporations, cells were grown to confluency in […] dishes, and rinsed twice in serum- and antibiotic-free media. Five micrograms of plasmids in 500 µl of serum and antibiotic-free DMEM were added to each well and one […] square wave electric pulse was applied using a PetriPulser electrode (BTX, San Diego, Calif.). […] Drugs were used at the following final concentrations: 1 μM TSA, 1 mM Sodium Butyrate, […], 3 mM 17B, 1 mM 17-AAG, and 10 nM Okadaic Acid. […] All luciferase measurements were normalized to total cell protein and reported as fold-increases in expression over DMSO (vehicle-treated). All experiments were performed in triplicate wells and the experiments were repeated at least three times. For statistical analyses, student's t-tests were used. Cells grown on etched coverslips were microinjected as previously described. At least 100 cells were injected for each condition and experiments were repeated three times.
Plasmid pCMV-lux-DTS expresses luciferase from the CMV immediate early promoter and contains the SV40 DNA nuclear targeting sequence downstream of the reporter gene. All plasmids were purified from E. coli using Qiagen Gigaprep kits as described by the manufacturer (Qiagen, Chatsworth, Calif.). Plasmid pDD306, expressing GFP from the CMV promoter and which contains the GeneGrip1 PNA binding site (Gene Therapy Systems, San Diego, Calif.) was labeled with Cy3-labeled PNA as described. Briefly, plasmids were labeled with Cy3-PNA in the manufacturer's labeling buffer at 37° C. for 2 hours followed by isopropanol precipitation to remove unbound Cy3-PNA. Plasmid labeling was verified by agarose gel electrophoresis and fluorescent detection in the absence of ethidium bromide.

The subject of test [2] is acetylated tubulin. Nature of the test: Total and acetylated tubulin by immunofluorescence and Western blot. The format is cell-based, human. Also on record: level of microtubules (polymerized tubulin) / acetylated microtubules after treatment: dose or concentration left out as unconfirmed. Particulars: for microtubule (tubulin) acetylation: cell cultures, immunofluorescence, versus treatment controls. The procedure: Prior to collection, samples were washed once in PBS (37° C.), and stabilized in two 15 minute washes in microtubule stabilization buffer (0.1M PIPES, pH 6.75, 1 mM EGTA, 1 mM MgSO4, 2 M glycerol, protease inhibitors). Cells were then lysed in microtubule lysis buffer (25 mM Tris-HCl, pH 7.4, 0.4 M NaCl and 0.5% SDS). All extracted samples were mixed with SDS-PAGE sample buffer (112.5 mM Tris-HCl, pH 6.8, 10%-mercaptoethanol, 3.6% SDS, 1.8% glycerol, 0.001% bromophenol blue) such that equal amounts of total protein were loaded for each fraction. The samples were boiled for 3 min and separated by 12% SDS-PAGE gels according to the methods previously described by Lugtenberg. Proteins were transferred to nitrocellulose and probed using anti-acetylated (1:1000, Sigma) or anti-tubulin (1:1000, Sigma) in PBS with 5% fat-free powdered milk. Blots were developed with a chemiluminescence detection kit, and autoradiograms were digitized before densitometry using ImageJ (NIH, Bethesda, Md.). All samples were run in duplicate and were from at least three independent experiments. After all treatment regimes, cells were washed with PBS followed by a 10 minute incubation in fixation/permeabilization buffer (60 mM PIPES, 25 mM HEPES, 10 mM EGTA, 3 mM MgCl2, 0.2% Triton X-100, and 3.7% paraformaldehyde). Cells were then washed in PBS and blocked for 1 hour in PBS containing 1 mg/ml BSA. After blocking, the cells were incubated for 1 hour with the appropriate primary antibody in PBS with 0.1 mg/ml BSA, washed in PBS, and reacted for 30 minutes with Alexa 488 or 555 conjugated secondary antibody (1:200, Molecular Probes, Eugene, Oreg.) in PBS with 0.1% BSA. Following a second set of washes in PBS, the silastic membranes were excised from the culture plates, placed face up on a microscope slide, and covered with a coverslip. All images were acquired in OpenLab (Improvision, Lexington, Mass.) with a Hamamatsu Orca II-ER camera attached to Leica DRMX-2 upright fluorescent microscope using a 100× oil-immersion objective.
A general note: In western blotting, separated proteins are transferred to a membrane and probed.

Test [3] deals with cytoplasmic HDACs (HDAC6). Particulars: A549 cytoplasmic extracts.
Description: HDAC6 Activity measurements. Cytoplasmic lysates were prepared as previously described to separate HDAC6 from nuclear HDAC activity (36). Cells were then probed for HDAC activity using a fluorescent HDAC activity kit (BioMol International LP, Plymouth Meeting, Pa.). At various times during the development of the assay, the reagents were quenched, allowing for a determination of the relative activity of the cytoplasmic HDACs.
The target of test [4] is T1, HDAC6 (Homo sapiens, UniProt Q9UBN7).
T1 sequence (Q9UBN7 1-1215): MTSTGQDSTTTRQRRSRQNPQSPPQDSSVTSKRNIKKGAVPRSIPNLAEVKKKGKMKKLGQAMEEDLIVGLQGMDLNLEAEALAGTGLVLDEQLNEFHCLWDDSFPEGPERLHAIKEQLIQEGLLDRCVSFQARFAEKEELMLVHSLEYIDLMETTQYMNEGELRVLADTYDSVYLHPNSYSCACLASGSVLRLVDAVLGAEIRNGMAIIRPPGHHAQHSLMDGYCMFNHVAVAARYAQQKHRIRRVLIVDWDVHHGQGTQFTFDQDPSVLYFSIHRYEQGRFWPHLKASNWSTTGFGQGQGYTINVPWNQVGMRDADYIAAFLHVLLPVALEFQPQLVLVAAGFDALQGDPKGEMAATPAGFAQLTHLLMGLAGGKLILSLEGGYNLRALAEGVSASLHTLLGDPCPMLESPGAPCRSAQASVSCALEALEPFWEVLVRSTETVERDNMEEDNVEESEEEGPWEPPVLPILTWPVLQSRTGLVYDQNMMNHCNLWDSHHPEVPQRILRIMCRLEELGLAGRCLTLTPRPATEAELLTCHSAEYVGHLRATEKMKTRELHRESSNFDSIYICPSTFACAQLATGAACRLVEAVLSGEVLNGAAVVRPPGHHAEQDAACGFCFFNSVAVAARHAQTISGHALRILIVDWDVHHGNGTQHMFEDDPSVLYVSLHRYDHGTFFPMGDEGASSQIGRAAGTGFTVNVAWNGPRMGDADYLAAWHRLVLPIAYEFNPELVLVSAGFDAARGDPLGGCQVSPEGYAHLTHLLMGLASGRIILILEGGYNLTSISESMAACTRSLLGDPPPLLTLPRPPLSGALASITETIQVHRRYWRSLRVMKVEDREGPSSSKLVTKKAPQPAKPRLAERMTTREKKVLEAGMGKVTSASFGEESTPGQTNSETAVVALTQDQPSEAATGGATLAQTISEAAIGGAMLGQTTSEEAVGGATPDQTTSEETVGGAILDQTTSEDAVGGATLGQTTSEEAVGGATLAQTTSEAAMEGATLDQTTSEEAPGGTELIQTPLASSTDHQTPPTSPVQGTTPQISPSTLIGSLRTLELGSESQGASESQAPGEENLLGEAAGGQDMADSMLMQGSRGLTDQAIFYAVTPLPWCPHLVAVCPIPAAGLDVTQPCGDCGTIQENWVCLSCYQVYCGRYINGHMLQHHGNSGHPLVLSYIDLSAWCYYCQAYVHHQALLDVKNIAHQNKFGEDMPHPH
Particulars: sodium butyrate 1 mM, Trichostatin A 1 μM where stated; cited from earlier work.

`C=CCNC1=C2C[C@@H](C)C[C@H](OC)[C@H](O)[C@@H](C)/C=C(\C)[C@H](OC(N)=O)[C@@H](OC)/C=C\C=C(/C)C(=O)NC(=CC1=O)C2=O` [17-AAG]: in test [1], the “luciferase expression versus DMSO (vehicle) treated or wild type cells” value (shortened to “luciferase expression versus DMSO”) was “no increase in expression; also recorded: dampened”.

For `CC(/C=C/C(=O)NO)=C\[C@@H](C)C(=O)c1ccc(N(C)C)cc1` [TSA, trichostatin A], in test [1], the “luciferase expression versus DMSO” value was “slight but significant increase”, the “exogenous gene expression (luciferase) versus vehicle control” value is “significant increases” and the “exogenous gene expression as measured by luciferase expression over appropriate control (FIG. 4)” value is given as “increased”. For the same molecule, the “higher increase in expression than sodium butyrate” value in test [1] (A549, 24 hours after electroporation, 25 hours after drug) is listed as about 10 fold. The “microtubule (tubulin) acetylation” value in test [2] is “significant microtubule acetylation”. For the same molecule, the “microtubule (tubulin) acetylation” value in test [2] (listed as trichostatin A) is reported as “increased”. Further, the “cytoplasmic HDAC activity in the assay” value in test [3] is “quenched”.

Turning to `O=C(CCCCCCC(=O)Nc1ccc([C@H]2O[C@@H](CSc3nc(-c4ccccc4)c(-c4ccccc4)o3)C[C@@H](c3ccc(CO)cc3)O2)cc1)NO` [Tubacin, tubacin], the “exogenous gene expression as measured by luciferase expression over appropriate control (FIG. 4)” value in test [1] is on record as “increased”; in test [1] (listed as tubacin) it was “greatly increased”.

For the molecule `COC(=O)Nc1nc2ccc(C(=O)c3cccs3)cc2[nH]1` [nocodazole], in test [2] (A549, Nocodazole, 3 hours), the “acetylated microtubules after treatment” value is on record as “still remained” and the “level of microtubules (polymerized tubulin)” value is “greatly diminished”.

For the molecule `C=C1[C@@H](O)[C@@H]2O[C@]3(CC[C@H](/C=C/[C@@H](C)[C@@H]4CC(C)=C[C@@]5(O[C@H](C[C@@](C)(O)C(=O)O)CC[C@H]5O)O4)O3)CC[C@H]2O[C@@H]1[C@@H](O)C[C@H](C)[C@H]1O[C@@]2(CCCCO2)CC[C@H]1C` [okadiac acid, Okadaic Acid], the “luciferase expression versus DMSO” value in test [1] is listed as “did not result the increase in expression”.

On to `CCCC(=O)[O-].[Na+]` [sodium butyrate], for which the “exogenous gene expression (luciferase) versus vehicle control” value in test [1] is reported as “significant increases”. Besides, the “microtubule (tubulin) acetylation” value in test [2] is “not and not observed”. Further, the HDAC inhibition selectivity result in test [4] is reported as “does not inhibit HDAC6; also recorded: inhibits all HDACs except for HDAC6”.

These data come from patent publication US8334272B2, “Methods for nucleic acid transfer into cells” (Northwestern University, priority 2007, dated 2012).
